#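 Cultured in 96-well plates, cells were exposed to test compound for 48 hours across five concentrations. Definition used: TGI = concentration required for complete inhibition of growth.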
# Columns and labels:
# Assay in all cases: NCI-60 cell line screen, 48 h
# OVCAR-3 ovarian = test system: OVCAR-3 ovarian
# COLO 205 colon = test system: COLO 205 colon
# SF-268 CNS = test system: SF-268 CNS
# K-562 leukemia = test system: K-562 leukemia
# NCI-H226 lung = test system: NCI-H226 lung
# KM12 colon = test system: KM12 colon
# SK-MEL-28 melanoma = test system: SK-MEL-28 melanoma
# SF-539 CNS = test system: SF-539 CNS
# HCT-116 colon = test system: HCT-116 colon
# SK-OV-3 ovarian = test system: SK-OV-3 ovarian
# HOP-62 NSCLC = test system: HOP-62 NSCLC
# HS 578T breast = test system: HS 578T breast
# PC-3 prostate = test system: PC-3 prostate
# NCI-H522 lung = test system: NCI-H522 lung
# SF-295 CNS = test system: SF-295 CNS
# U251 CNS = test system: U251 CNS
# NCI/ADR-RES ovarian = test system: NCI/ADR-RES ovarian
# MALME-3M melanoma = test system: MALME-3M melanoma
# A549 NSCLC = test system: A549 NSCLC
SMILES,TGI (OVCAR-3 ovarian) [µM],TGI (COLO 205 colon) [µM],TGI (SF-268 CNS) [µM],TGI (K-562 leukemia) [µM],TGI (NCI-H226 lung) [µM],TGI (KM12 colon) [µM],TGI (SK-MEL-28 melanoma) [µM],TGI (SF-539 CNS) [µM],TGI (HCT-116 colon) [µM],TGI (SK-OV-3 ovarian) [µM],TGI (HOP-62 NSCLC) [µM],TGI (HS 578T breast) [µM],TGI (PC-3 prostate) [µM],TGI (NCI-H522 lung) [µM],TGI (SF-295 CNS) [µM],TGI (U251 CNS) [µM],TGI (NCI/ADR-RES ovarian) [µM],TGI (MALME-3M melanoma) [µM],TGI (A549 NSCLC) [µM]
COC(=O)C1=C(C)NC(C)=C(C(=O)OC)C1c1ccc(/[N+]([O-])=C/c2ccccc2)cc1,34.4,35.1,> 100,> 100,> 100,> 100,36.8,> 100,30,> 100,> 100,> 100,> 100,27.9,> 100,> 100,> 100,31.3,> 100
Cc1cccc2c1[C@]13OC(C)[C@]4(C)CC5OC(=O)[C@@]1(C)[C@@H]5[C@]34C(=O)O2 (stereo partly drawn),> 100,> 100,> 100,> 100,> 100,> 100,> 100,> 100,> 100,> 100,> 100,> 100,> 100,> 100,> 100,> 100,> 100,> 100,> 100
O=C1/C(=C\c2ccc([N+](=O)[O-])o2)SC2N=C(COc3ccc(Cl)cc3)NN12 (stereo not drawn),18.9,13.3,13.6,27,41.3,28.4,17.9,15.5,14.5,38.8,41.8,> 100,24.4,4.81,34.1,34.7,42.9,6.07,38.4
O=C(C(=O)N1CCc2ccccc21)c1c[nH]c2ccccc12,> 10,> 10,> 10,> 10,> 10,> 10,> 10,> 10,> 10,> 10,> 10,> 10,> 10,> 10,> 10,> 10,> 10,> 10,> 10
COc1cccc(CCn2c(N)c(-c3ccccc3)c3ccc([N+](=O)[O-])cc3c2=O)c1,6.51,5.93,53.7,21,11.7,16,50,6.28,10,23.3,24.4,5.25,> 79,9.37,22.7,36.5,5.21,33.6,42
O=C(O)c1nc(-c2ccccn2)c(-c2ccccn2)nc1C(=O)O,12.4,7.75,24.1,> 100,4.7,17.9,11.1,20.6,5.6,16.3,15.3,> 72.6,20.9,23.2,21.8,13.3,> 23.1,7.85,11.9
CCOC(=O)c1nc2c(Cl)c3ncccc3cc2[nH]c1=O,> 100,> 100,> 100,> 100,> 100,> 100,> 100,> 100,> 100,> 100,> 100,> 100,> 100,> 100,> 100,> 100,> 100,> 100,> 100
C/C(=N\Nc1cc(CN2CCCC2)c(-c2ccc(Cl)cc2)nn1)C(=O)O,> 100,> 100,> 100,> 100,> 100,> 100,> 100,> 100,> 100,> 100,> 100,> 100,> 100,> 100,> 100,> 100,> 100,> 100,> 100
COc1ccc2c(c1C)C(=O)C(O)(CC=C(C)C)O2 (stereo not drawn),> 100,> 100,> 100,> 100,> 100,> 100,> 100,> 100,> 100,> 100,> 100,> 100,> 100,> 100,> 100,> 100,> 100,> 100,> 100
COc1cc(/C=C2\C[C@H]3[C@@H]4CC=C5C[C@@H](O)CC[C@]5(C)[C@H]4CC[C@]3(C)C2=O)cc(OC)c1OC,> 100,54.9,> 100,> 100,> 100,> 100,> 100,> 100,47.3,> 100,> 100,> 100,> 100,67.8,52.7,> 100,> 100,> 100,> 100
CC1=C(C(N)=O)C(c2ccncc2)C(C#N)=C2SCC(=O)N12 (stereo not drawn),> 100,> 100,> 100,> 100,> 100,> 100,> 100,> 100,> 100,> 100,> 100,> 100,> 100,> 100,> 100,> 100,> 100,> 100,> 100
C#CCn1ncc2c(SCc3ccccc3)ncnc21,> 100,> 100,> 100,> 100,> 100,> 100,> 100,> 100,> 100,> 100,> 100,> 100,> 100,> 100,> 100,> 100,> 100,> 100,> 100
